Test results reported in PMC12040169 (PLOS Biology, 2025).

Experiment: in vitro
Conditions: human, hela cells, % viability

SMILES	viability at 28.5 h, 10 µM
CCCc1n[nH]c(Cc2c(Cl)cccc2Cl)c1C(=O)OCC [CBK113275]	88.9%
CC(C)Nc1nc2ccccc2nc1OC1CCN(C)C1 (centres unmarked) [CBK113283]	81.1%
FC(F)(F)c1ccnc(OCCN2CCOCC2)c1 [CBK113286]	97.1%
FC(F)(F)c1cccc(OCCN2CCOCC2)n1 [CBK113289]	105%
FC(F)(F)c1cccc(OC2CCCNC2)n1 (centres unmarked) [CBK113290]	93.2%
FC(F)(F)c1ccnc(OCCN2CCNCC2)n1 [CBK113297]	97.5%
FC(F)(F)c1nc2ccccc2nc1OCCN1CCNCC1 [CBK113302]	99.4%
CC(C)Oc1cncc(Cl)n1 [CBK113321]	106%
c1ccc2oc(-c3cc4ccccc4o3)cc2c1 [CBK113363]	113%
Clc1nc2ccccc2nc1OCCOc1ccccc1 [CBK113367]	108%
CC(C)Nc1nc2ccccc2nc1OCCCN(C)C [CBK113416]	108%
CC(C)Nc1nc2cc(Cl)c(Cl)cc2nc1OCCN(C)C [CBK113419]	103%
c1ncc(N2CCCC2)nc1OCCN1CCOCC1 [CBK113430]	89.1%
Clc1cc2nc(OC3CCCNC3)c(N3CCCC3)nc2cc1Cl (centres unmarked) [CBK113454]	108%
FC(F)(F)c1cccnc1OCCN1CCOCC1 [CBK113456]	101%
CN1CCN(C)C(COc2ncccc2C(F)(F)F)C1 (centres unmarked) [CBK113458]	90.5%
CCN(CC)CCCOC1(C)SC(NC2CCCCCC2)=NC1=O (centres unmarked) [CBK113510]	86.5%
Fc1ccc(OCCCCCN2CCC3(CC2)OCCc2c3[nH]c3ccccc23)cc1 [CBK113516T]	2.48%
CCCc1n[nH]c(-c2cccc(C)c2C)c1C(=O)OCC [CBK113545]	106%
CCCc1n[nH]c(-c2c(F)cccc2F)c1C(=O)OCC [CBK113546]	92.7%
COc1cccc(CCOc2cncc(Cl)n2)c1 [CBK113556]	87.3%
CS(=O)(=O)c1ccc(Nc2ncnc(N3CCC(Sc4ccccc4)CC3)c2[N+](=O)[O-])cc1 [CBK113567]	92.8%
OC1CCCn2c1nc1cc(Cl)ccc12 (centres unmarked) [CBK113625]	72.4%
COc1ccc(C)cc1S(=O)(=O)N1CCc2c(CN3CCN(C)CC3)cccc21 [CBK113628T]	115%
COc1ccc(C)cc1S(=O)(=O)N1CCc2c(CN3CCOCC3)cccc21 [CBK113630T]	86.8%

SMILES	viability at 28.5 h, 10 µM
N#Cc1ccc(-c2cnc(N)c(-c3ccccc3Cl)n2)cc1 [CBK113660]	88.5%
COc1ccc(N2Cc3ccccc3C2=O)cc1OC [CBK113666]	95.5%
Cn1ncc2c1C(=O)NC1c3ccccc3C(=O)N21 (centres unmarked) [CBK113668]	94.3%
O=c1sn(-c2ccccc2C(F)(F)F)c(=O)n1CC1CC1 [CBK113675]	82.8%
Cc1n[nH]cc1-c1nsc(Nc2ccccc2)n1 [CBK113680]	92.2%
O=C(O)c1cc(S(=O)(=O)Nc2ccc(F)cc2)c(Cl)cc1Cl [CBK113685]	84.9%
Cn1c(C(=O)O)ccc1S(=O)(=O)NCc1ccco1 [CBK113686]	105%
Cc1cccc(NC(=O)c2ccccc2NS(=O)(=O)c2ccc(F)c(F)c2)c1 [CBK113810]	115%
O=C(NCc1ccccc1)c1ccccc1NS(=O)(=O)c1ccccc1F [CBK113881]	106%
CCCN(CCC)C(=O)c1ccc(-n2nc(C(=O)OCC)c(Br)c2C)cc1 [CBK114363]	109%
Cc1nnc(-c2cc(CC(C)C)n(-c3cccc(C(=O)N4CC=CCC4)c3)n2)o1 [CBK114630]	91.6%
Cc1nnc(-c2cc(CCC(C)C)n(-c3cccc(C(=O)N4CCCCC4)c3)n2)o1 [CBK114689]	95.4%
Cc1csc(Sc2nccnc2NC(C)C)n1 [CBK115203]	88.8%
CC(C)Nc1nccnc1Sc1nc[nH]n1 [CBK115205]	97.5%
Cc1nnc(Sc2ncccc2C(F)(F)F)s1 [CBK115211]	87.7%
FC(F)(F)c1cccnc1Sc1nc[nH]n1 [CBK115213]	102%
Cc1nnc(Sc2cc(C(F)(F)F)ccn2)s1 [CBK115215]	87.6%
c1csc(Sc2nc3ccccc3nc2N2CCCC2)c1 [CBK115225]	94.3%
Fc1ccc(Sc2ccc(C(F)(F)F)cn2)cc1 [CBK115235]	106%
FC(F)(F)c1ccc(Sc2cccs2)nc1 [CBK115236]	92.5%
Cc1ccccc1Sc1ccc(C(F)(F)F)cn1 [CBK115237]	112%
Nc1cccc(Sc2cccc(C(F)(F)F)n2)c1 [CBK115239]	99.3%
Fc1ccc(Sc2cccc(C(F)(F)F)n2)cc1 [CBK115240]	97.5%
Cc1ccccc1Sc1cccc(C(F)(F)F)n1 [CBK115243]	103%
FC(F)(F)c1ccnc(Sc2cccs2)n1 [CBK115245]	87.7%

SMILES	viability at 28.5 h, 10 µM
COc1ccc(Sc2nccnc2NC(C)C)cc1OC [CBK115249]	87.4%
COCc1nnc(Sc2nc3ccccc3nc2NC(C)C)s1 [CBK115253]	96.5%
c1ccc2nc(N3CCCC3)c(Sc3nc[nH]n3)nc2c1 [CBK115265]	90.9%
CC(C)Nc1nccnc1OC1CCNC1 (centres unmarked) [CBK115279]	92.5%
CC(C)Nc1nc2cc(Cl)c(Cl)cc2nc1OCCCN(C)C [CBK115282]	93.1%
c1cnc(N2CCCC2)c(OC2CCCNC2)n1 (centres unmarked) [CBK115283]	90.2%
CCOC(=O)Cn1c(C)nc2ccccc21 [CBK115311]	103%
CC1(C(F)(F)F)OC(NC2C3CC4CC(C3)CC2C4)=NC1=O (centres unmarked) [CBK115312]	114%
O=c1c([N+](=O)[O-])c(O)c2ccccc2n1-c1ccccc1 [CBK115316]	97.5%
COc1ccccc1-n1c(C)c(C(C)=O)c2cc(O)ccc21 [CBK115320]	86.3%
COC(=O)c1nn(-c2ccccc2)c2cc([N+](=O)[O-])ccc12 [CBK115321]	99.3%
Cc1cc(O)c(C(C)C)cc1N1C(=O)c2ccc([N+](=O)[O-])cc2C1=O [CBK115323]	97.7%
Cn1c(CNc2ccccc2[N+](=O)[O-])c(C#N)c2ccccc21 [CBK115324]	98.1%
Cc1ccc(-n2c(C)c([N+](=O)[O-])c3ccc(O)c(CN(C)C)c32)cc1 [CBK115328]	88.8%
Cc1cc(O)nc2sc(C(=O)c3ccccc3)c(N)c12 [CBK115334]	87.9%
Cc1cc(C)c2c(N)c(C(=O)C(C)(C)C)sc2n1 [CBK115341]	81.3%
Cc1ccc2c(N)c(C(=O)Nc3ccc(C#N)cc3)sc2n1 [CBK115348]	91.3%
COc1ccc2c(c1)/C(=C/c1cnc[nH]1)C(=O)N2 [CBK115354]	72.5%
CC(C)NC(=O)/C(=C/c1c[nH]c2ncccc12)c1ccccc1 [CBK115357]	95.8%
CCN(CC)C(=O)c1sc2nc(-c3cccs3)nc(C)c2c1N [CBK115366]	100%
CC(=O)c1sc2nc(-c3ccccc3)nc(C)c2c1N [CBK115368]	90.5%
Cc1ccc2c(N)c(C(=O)c3cccs3)sc2n1 [CBK115369]	92.5%
COc1ccc(Cn2c(C)nc3c([N+](=O)[O-])c(C)c(C)cc32)cc1 [CBK115370]	102%
CCOC(=O)c1sc2nccc(N(C)C)c2c1-n1cccc1 [CBK115381]	93.4%
COC(=O)c1ccccc1N1C(=O)c2cccc([N+](=O)[O-])c2C1=O [CBK115382]	95.7%

SMILES	viability at 28.5 h, 10 µM
O=C1Nc2ccccc2/C1=C/c1c[nH]cn1 [CBK115386]	92.8%
COC[C@H]1CCCN1C(=O)Cn1[nH]c(C)c(Cc2c(Cl)cccc2Cl)c1=O [CBK115407]	103%
COc1ccc2c(c1)nc1n2CCC1O (centres unmarked) [CBK115449]	96.9%
COc1cccc(CN2CCCN(c3nccc(OCC4COc5ccccc5O4)n3)CC2)c1OC (centres unmarked) [CBK115476T]	108%
CC1(c2[nH]nc(N)c2Cc2c(Cl)cccc2Cl)CC1 [CBK115483T]	92.3%
Cc1[nH]c(=O)[nH]c(=S)c1C(=O)NCc1ccc(Cl)cc1 [CBK115489]	106%
Cc1[nH]c(=O)[nH]c(=S)c1C(=O)NCc1cccc(Cl)c1C [CBK115493]	94.6%
Cc1[nH]c(=O)[nH]c(=S)c1C(=O)Nc1ccc(Cl)cc1C#N [CBK115502]	91%
Cc1[nH]c(=O)[nH]c(=S)c1C(=O)Nc1ccc(C(F)(F)F)cc1 [CBK115510]	96.2%
Nc1ncc(-c2ccccc2O)nc1-c1ccc(O)cc1 [CBK115548]	78.5%
Cc1ccc(C(=O)c2coc3ccc(O)cc23)cc1 [CBK115557]	89.1%
O=C(O)CSc1ccc(Cl)cc1 [CBK115571]	88.4%
O=[N+]([O-])c1cccnc1Sc1ccccc1C1=NCCCN1 [CBK115579C]	96.2%
NCCCOc1cncc(N2CCCC2)n1 [CBK115603]	96.8%
Nc1ncc(-c2ccsc2)nc1-c1ccc(O)cc1 [CBK115631]	100%
O=C1N=C(NC2C3CC4CC(C3)CC2C4)OC12CCN(CCC(F)(F)F)CC2 (centres unmarked) [CBK115640]	91.4%
CC(C)Nc1nccnc1OCc1ccc(F)cc1 [CBK115644]	113%
CC(C)Nc1nccnc1OCc1ccsc1 [CBK115646]	103%
CC(C)Nc1cc(OCc2ccc(F)cc2)ncn1 [CBK115654]	103%
CC(C)Nc1cc(OCc2ccc(-c3ccccc3)cc2)ncn1 [CBK115658]	103%
CC(C)Nc1nc2ccccc2nc1OCc1ccsc1 [CBK115660]	104%
Clc1ccc(OCCOc2cncc(N3CCCC3)n2)cc1 [CBK115668]	87.4%
c1ccc(NCCOc2cncc(N3CCCC3)n2)cc1 [CBK115670]	101%
